Test results published in US20240148821A1, “PHARMACEUTICAL USE OF CYCLIC PEPTIDE COMPOUND” (CHUGAI SEIYAKU KABUSHIKI KAISHA, priority 2021, published 2024).
Numbered stars: 1 amine (or outer) side, 2 acyl side, 3 side chain; on linkers, the order of the positions; unused ones are H or OH. Bridge positions count the residues as written; N and C are the ends. Square brackets hold non-standard residues; d marks the D form. Peptide text beside a SMILES is read from it. * marks the point of attachment. hPhe(3,5-F2-4-CF3) = N[C@@H](CCc1cc(F)c(C(F)(F)F)c(F)c1)C(=O)O; hPhe(3-Cl-4-CF3) = N[C@@H](CCc1ccc(C(F)(F)F)c(Cl)c1)C(=O)O; hPhe(3-F,4-CF3) = N[C@@H](CCc1ccc(C(F)(F)F)c(F)c1)C(=O)O; NMePhe(4-CF3) = CN[C@@H](Cc1ccc(C(F)(F)F)cc1)C(=O)O; NMedβ3hAla = C[C@H](CC(=O)[*:2])N(C)[*:1]; NMeAla(cPent) = CN[C@@H](CC1CCCC1)C(=O)O; NMeGly(cPent) = CN[C@H](C(=O)O)C1CCCC1; Pro(4,4-F2) = O=C(O)[C@@H]1CC(F)(F)CN1; NMeCha = CN[C@@H](CC1CCCCC1)C(=O)O; Hyp = O=C(O)[C@@H]1C[C@@H](O)CN1; NEtLeu = CCN[C@@H](CC(C)C)C(=O)O; NMeChg = CN[C@H](C(=O)O)C1CCCCC1; NMeI = CC[C@H](C)[C@H](NC)C(=O)O; NMeD = CN[C@@H](CC(=O)O)C(=O)O; NMeL = CN[C@@H](CC(C)C)C(=O)O; NMeNle = CCCC[C@H](NC)C(=O)O; Azetidin(1-yl) = C1CN(*)C1; Morpholide = C1CN(*)CCO1; NMeA = CN[C@@H](C)C(=O)O; NMeAib = CNC(C)(C)C(=O)O; Piperidide = C1CCN(*)CC1; Pyrrolidide = C1CCN(*)C1; Ac5c = NC1(C(=O)O)CCCC1; Aze = O=C(O)[C@@H]1CCN1; Ac4c = NC1(C(=O)O)CCC1; Sar = CNCC(=O)O

Columns and labels:
[1] = biological target: protein-protein interaction between Kras and SOS1 (biotin-tagged human Kras loaded with GDP, His-tagged human SOS1) (Homo sapiens (Human), UniProt P01116, G12D); experiment: Protein-protein interaction inhibition between Kras and SOS1 (KrasG12D-SOS PPI) using AlphaScreen; format: biochemical; settings: AlphaScreen; biotin-tagged human Kras loaded with GDP, His-tagged human SOS1; read-out: KRAS G12D-SOS PPI IC50;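 further: kras produced in E. coli, Ni-coupled donor beads and streptavidin acceptor beads, excitation 680 nm with emission detected at 520–620 nm via singlet oxygen transfer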
[2] = system: Human pancreatic cancer cell line AsPC-1 (G12D mutation Kras); experiment: AsPC-1 cell growth inhibition (AsPC-1 CGI); format: cell-based; settings: read-out: AsPC-1 cell growth inhibition, 50% growth inhibitory concentration (IC50 value); 96 hours, CellTiter-Glo, values classified in ranges

Row | Structure (SMILES) | IC50 [1] | IC50 [2]
1 | CCO[C@@H]1C[C@H]2C(=O)NC3(CCC3)C(=O)N(C)[C@@H](C3CCCCC3)C(=O)N(C)[C@H](C(=O)N3CCCC3)CC(=O)N(C)[C@@H](CC(C)C)C(=O)N[C@@H]([C@@H](C)CC)C(=O)N(C)CC(=O)N(C)CC(=O)N(C)[C@@H](CC3CCCCC3)C(=O)N(C)CC(=O)N[C@@H](CCc3cc(F)c(C(F)(F)F)c(F)c3)C(=O)N2C1 [Compound 1366] ([NMeL]I[Sar][Sar][NMeCha][Sar][hPhe(3,5-F2-4-CF3)][Hyp](Et)[Ac4c][NMeChg][NMeD]-Pyrrolidide; lactam N-11) | 0.00063 µM | ≤ 0.02 µM
2 | CC[C@H](C)[C@@H]1NC(=O)[C@H](CC(C)C)N(C)C(=O)C[C@@H](C(=O)N(C)C)N(C)C(=O)[C@H](C2CCCC2)N(C)C(=O)C2(CCCC2)NC(=O)[C@@H]2CCCN2C(=O)[C@H](CCc2ccc(C(F)(F)F)c(F)c2)NC(=O)CN(C)C(=O)[C@H](CC2CCCCC2)N(C)C(=O)[C@@H]2CCN2C(=O)[C@H](C)N(C)C1=O [Compound 334] ([NMeL]I[NMeA][Aze][NMeCha][Sar][hPhe(3-F,4-CF3)]P[Ac5c][NMeGly(cPent)][NMeD]-NMe2; lactam N-11) | 0.0005 µM | ≤ 0.02 µM
3 | CC[C@H](C)[C@@H]1NC(=O)[C@H](C)N(C)C(=O)C[C@@H](C)N(C)C(=O)[C@H](CC(C)C)NC(=O)C(C)(C)N(C)C(=O)[C@H](CC(C)C)NC(=O)[C@H](CCc2ccc(C(F)(F)F)c(F)c2)NC(=O)CN(C)C(=O)[C@H](CC2CCCCC2)N(C)C(=O)CN(C)C(=O)CN(C)C1=O [Compound 842] (cyclo(I[Sar][Sar][NMeCha][Sar][hPhe(3-F,4-CF3)]L[NMeAib]L[NMedβ3hAla][NMeA])) | 0.043 µM | > 0.5 µM
4 | CC[C@H](C)[C@@H]1NC(=O)[C@H](CC2CCCC2)N(C)C(=O)C[C@@H](C(=O)N2CCOCC2)N(C)C(=O)[C@H](C2CCCC2)N(C)C(=O)C2(CCCC2)NC(=O)[C@@H]2CCCN2C(=O)[C@H](CCc2ccc(C(F)(F)F)c(Cl)c2)NC(=O)CN(C)C(=O)[C@H](C2CCCC2)N(C)C(=O)[C@@H]2CCN2C(=O)[C@H](C)N(C)C1=O [Compound 1173] ([NMeAla(cPent)]I[NMeA][Aze][NMeGly(cPent)][Sar][hPhe(3-Cl-4-CF3)]P[Ac5c][NMeGly(cPent)][NMeD]-Morpholide; lactam N-11) | 0.00074 µM | ≤ 0.02 µM
5 | CC[C@H](C)[C@@H]1NC(=O)[C@H](CC(C)C)N(CC)C(=O)C[C@@H](C(=O)N2CCOCC2)N(C)C(=O)[C@H]([C@@H](C)CC)N(C)C(=O)C2(CCCC2)NC(=O)[C@@H]2CCCN2C(=O)[C@H](CCc2ccc(C(F)(F)F)c(Cl)c2)NC(=O)CN(C)C(=O)[C@H](Cc2ccc(C(F)(F)F)cc2)N(C)C(=O)[C@@H]2CCN2C(=O)[C@H](C)N(C)C1=O [Compound 1234] ([NEtLeu]I[NMeA][Aze][NMePhe(4-CF3)][Sar][hPhe(3-Cl-4-CF3)]P[Ac5c][NMeI][NMeD]-Morpholide; lactam N-11) | 0.0045 µM | ≤ 0.02 µM
6 | CCCC[C@H]1C(=O)NC2(CCCC2)C(=O)N(C)[C@@H](C2CCCCC2)C(=O)N(C)[C@H](C(=O)N2CCCCC2)CC(=O)N(C)[C@@H](CC(C)C)C(=O)N[C@@H]([C@@H](C)CC)C(=O)N(C)CC(=O)N(C)CC(=O)N(C)[C@@H](CC2CCCCC2)C(=O)N(C)CC(=O)N[C@@H](CCc2ccc(C(F)(F)F)c(Cl)c2)C(=O)N1C [Compound 730] ([NMeL]I[Sar][Sar][NMeCha][Sar][hPhe(3-Cl-4-CF3)][NMeNle][Ac5c][NMeChg][NMeD]-Piperidide; lactam N-11) | 0.012 µM | > 0.5 µM
7 | CC[C@H](C)[C@@H]1NC(=O)[C@H](CC(C)C)N(C)C(=O)C[C@@H](C(=O)N2CCC2)N(C)C(=O)[C@H](C2CCCC2)N(C)C(=O)C2(CCCC2)NC(=O)[C@@H]2CC(F)(F)CN2C(=O)[C@H](CCc2ccc(C(F)(F)F)c(Cl)c2)NC(=O)CN(C)C(=O)[C@H](CC2CCCCC2)N(C)C(=O)[C@@H]2CCN2C(=O)[C@H](C)N(C)C1=O [Compound 1283] ([NMeL]I[NMeA][Aze][NMeCha][Sar][hPhe(3-Cl-4-CF3)][Pro(4,4-F2)][Ac5c][NMeGly(cPent)][NMeD]-{Azetidin(1-yl)}; lactam N-11) | 0.00063 µM | ≤ 0.02 µM
